Data set [1] concerns the target T1, Sodium/glucose cotransporter 2 (Homo sapiens, UniProt P31639).
T1 sequence (P31639 whole entry): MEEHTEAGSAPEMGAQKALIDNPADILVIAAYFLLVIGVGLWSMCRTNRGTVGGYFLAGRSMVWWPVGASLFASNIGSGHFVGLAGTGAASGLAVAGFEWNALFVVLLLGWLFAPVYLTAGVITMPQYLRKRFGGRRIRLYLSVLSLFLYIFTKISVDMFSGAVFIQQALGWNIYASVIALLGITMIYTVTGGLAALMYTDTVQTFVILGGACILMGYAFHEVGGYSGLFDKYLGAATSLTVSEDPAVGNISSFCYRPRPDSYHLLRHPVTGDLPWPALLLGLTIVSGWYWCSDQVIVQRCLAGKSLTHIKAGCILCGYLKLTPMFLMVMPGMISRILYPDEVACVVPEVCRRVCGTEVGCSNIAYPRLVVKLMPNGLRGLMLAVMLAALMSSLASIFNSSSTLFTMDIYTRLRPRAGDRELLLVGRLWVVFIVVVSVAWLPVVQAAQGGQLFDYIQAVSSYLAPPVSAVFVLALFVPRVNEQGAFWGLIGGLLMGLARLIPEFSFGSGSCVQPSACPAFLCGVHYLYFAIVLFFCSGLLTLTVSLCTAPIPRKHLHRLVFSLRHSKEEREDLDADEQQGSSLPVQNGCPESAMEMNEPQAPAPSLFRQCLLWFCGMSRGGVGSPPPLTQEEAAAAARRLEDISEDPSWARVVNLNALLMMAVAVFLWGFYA
Briefly: Inhibition of human SGLT2 expressed in CHO cells assessed as inhibition of sodium-dependent methyl-alpha-D-[U-14C]glucopyranoside uptake after 2 hrs. The class given is cell-based.

The target of data set [2] is T2, Sodium/glucose cotransporter 1 (Homo sapiens, UniProt P13866).
T2 sequence (P13866 whole entry): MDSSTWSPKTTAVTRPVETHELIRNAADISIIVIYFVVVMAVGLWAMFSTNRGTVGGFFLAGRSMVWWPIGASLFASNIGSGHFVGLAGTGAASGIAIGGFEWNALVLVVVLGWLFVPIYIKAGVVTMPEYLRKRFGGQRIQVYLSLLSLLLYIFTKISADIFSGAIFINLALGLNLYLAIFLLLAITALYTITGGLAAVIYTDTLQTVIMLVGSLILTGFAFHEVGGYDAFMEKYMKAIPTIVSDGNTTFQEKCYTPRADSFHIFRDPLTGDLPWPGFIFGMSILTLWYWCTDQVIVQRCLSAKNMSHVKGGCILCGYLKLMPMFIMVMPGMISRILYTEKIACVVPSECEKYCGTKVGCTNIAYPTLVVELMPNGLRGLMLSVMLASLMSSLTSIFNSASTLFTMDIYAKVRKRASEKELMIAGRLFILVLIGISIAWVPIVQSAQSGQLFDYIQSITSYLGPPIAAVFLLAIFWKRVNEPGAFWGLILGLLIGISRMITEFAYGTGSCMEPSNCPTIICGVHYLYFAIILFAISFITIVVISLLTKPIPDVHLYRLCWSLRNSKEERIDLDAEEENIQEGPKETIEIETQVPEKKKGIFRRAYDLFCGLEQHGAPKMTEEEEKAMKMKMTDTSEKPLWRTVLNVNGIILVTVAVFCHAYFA
Put plainly: Inhibition of human SGLT1 expressed in CHO cells assessed as inhibition of sodium-dependent methyl-alpha-D-[U-14C]glucopyranoside uptake after 2 hrs. The class given is cell-based.

The species named for data set [3] is Homo sapiens. Briefly: Selectivity ratio of IC50 for human SGLT2 over IC50 for human SGLT1.
Data set [4] in a line: Clearance in Sprague-Dawley rat at 1 mg/kg, iv. Format: ADME, organism-based. The settings on record: in vivo. Also noted: dose 1 mg/kg, route intravenous.
Data set [5] can be described thus: Volume of distribution at steady state in Sprague-Dawley rat at 1 mg/kg, iv. Format: ADME, organism-based. Further details: dose 1 mg/kg, route intravenous. The settings on record: in vivo, read-out: Vdss.
Data set [6] is described as follows: Half life in Sprague-Dawley rat at 1 mg/kg, iv. Format: ADME, organism-based. Also noted: dose 1 mg/kg, route intravenous. The settings on record: in vivo.
A short description of data set [7]: Clearance in Sprague-Dawley rat at 2 mg/kg, iv. The class given is ADME, organism-based. Further details: dose 2 mg/kg, route intravenous. Conditions: in vivo.
The nature of data set [8]: Volume of distribution at steady state in Sprague-Dawley rat at 2 mg/kg, iv. Format: ADME, organism-based. Also noted: dose 2 mg/kg, route intravenous. Conditions: in vivo, read-out: Vdss.
A short description of data set [9]: Half life in Sprague-Dawley rat at 2 mg/kg, iv. Format: ADME, organism-based. Further details: dose 2 mg/kg, route intravenous. Conditions: in vivo.
Data set [10] can be described thus: Oral bioavailability in Sprague-Dawley rat at 5 mg/kg. The class given is ADME, organism-based. The settings on record: in vivo.
The test system of data set [11] is Rattus norvegicus. Put plainly: Antidiabetic activity in Sprague-Dawley rat assessed as maximum urinary glucose excretion at 60 mg/kg, po over 24 hrs measured per 200 g body weight. Format: functional, Urine.

Bounds are passed on as bounds.

The text below walks through data of ChEMBL document CHEMBL1154987, “C-Aryl glycoside inhibitors of SGLT2: Exploration of sugar modifications including C-5 spirocyclization” (Bioorg Med Chem Lett, 2010).

For `CCc1ccc(Cc2cc([C@@H]3O[C@H](CO)[C@@H](O)[C@H](O)[C@H]3O)ccc2C)cc1`, in data set [1], the IC50 (as a rule, the concentration that gives 50% inhibition) is 1.5 nM.
For the compound `COc1ccc(Cc2cc([C@@H]3O[C@H](C)[C@@H](O)[C@H](O)[C@H]3O)ccc2Cl)cc1`, the IC50 in data set [2] was determined as 73 nM; in data set [1], 2.4 nM.
Turning to `CCc1ccc(Cc2cc([C@@H]3O[C@H](CO)[C@@H](O)[C@@H](O)[C@H]3O)ccc2C)cc1`, in data set [1], the IC50 was 3700 nM.
In the case of `CCc1ccc(Cc2cc([C@@H]3OC4(CC4)[C@@H](O)[C@H](O)[C@H]3O)ccc2C)cc1`, the results for the 50% inhibitory concentration (IC50) in data set [2] and in data set [1] were 190 nM and 3 nM, respectively. The Ratio IC50 in [3] is 63. For the same compound, in data set [4], the clearance (commonly a measure of how efficiently the substance is removed, as volume per time) came to 112 mL/min/kg. Further, the Vd in data set [5] was 5.7 L/kg. Moreover, in [6], the half-life – broadly, the time in which the quantity being followed falls by half – is 35.4 min.
In the case of `COc1ccc(Cc2cc([C@@H]3OC4(CC4)[C@@H](O)[C@H](O)[C@H]3O)ccc2C)cc1`, the IC50 in [2] turned out to be 370 nM; in data set [1], 7.9 nM. Also, the Ratio IC50 in [3] was 47. The compound also returned a clearance in data set [4] of 48.9 mL/min/kg. In addition, the Vd in data set [5] is 2.6 L/kg. For the same compound, the half-life in [6] is 36.6 min.
With `CCc1ccc(Cc2cc([C@@H]3O[C@H](CO)[C@@H](O)C[C@H]3O)ccc2C)cc1`, in [1], the IC50 stood at 2000 nM.
On the same count and under the same terms, the value for `COc1ccc(Cc2cc([C@@H]3O[C@H](CO)[C@@H](O)[C@H](O)[C@H]3OC)ccc2Cl)cc1` was 140 nM; that for `COc1ccc(Cc2cc([C@@H]3O[C@H](CO)[C@@H](OC)[C@H](O)[C@H]3O)ccc2Cl)cc1` was 180 nM; that for `CCc1ccc(Cc2cc([C@@H]3O[C@H](CO)[C@H](O)[C@H](O)[C@H]3O)ccc2C)cc1` was 139 nM.
For `CCOc1ccc(Cc2cc([C@@H]3OC4(COC4)[C@@H](O)[C@H](O)[C@H]3O)ccc2Cl)cc1`, the values for the half-inhibitory concentration (IC50) in data set [2] and in data set [1] were 5600 nM and 32 nM, respectively.
With `COc1ccc(Cc2cc([C@@H]3O[C@H](CO)C[C@H](O)[C@H]3O)ccc2Cl)cc1`, the IC50 in data set [1] came out at 21 nM.
With `CCc1ccc(Cc2cc([C@H]3C[C@@H](O)[C@H](O)[C@@H](CO)O3)ccc2C)cc1`, the IC50 in [1] is more than 10000 nM.
Same read-out and setting: the value for `COc1ccc(Cc2cc([C@@H]3O[C@H](CF)[C@@H](O)[C@H](O)[C@H]3O)ccc2Cl)cc1` was 5.1 nM.
Take `COc1ccc(Cc2cc([C@@H]3O[C@H](CO)[C@@H](O)[C@H](O)[C@H]3O)ccc2Cl)cc1`: the IC50 in [2] was 240 nM; in data set [1] it was 1 nM.
As for `COc1ccc(Cc2cc([C@@H]3OC4(COC4)[C@@H](O)[C@H](O)[C@H]3O)ccc2C)cc1`, the IC50 in data set [2] was found to be 1540 nM; in data set [1], 6.6 nM. The clearance in data set [7] was determined as 22.3 mL/min/kg. In addition, the Vd in [8] stood at 2.3 L/kg. Further, in data set [9], the half-life was 72 min. Also, the bioavailability (usually the share of a dose that reaches the circulation, judged against a reference dose that is usually intravenous) in data set [10] was determined as 100%. Also, the Activity in data set [11] worked out at 2000 mg.
Consider `CCc1ccc(Cc2cc([C@@H]3OC4(CNC4)[C@@H](O)[C@H](O)[C@H]3O)ccc2C)cc1`, for which the IC50 in data set [2] was more than 10000 nM; in data set [1], 5100 nM.
In the same order, the values of `CCc1ccc(Cc2cc([C@@H]3OC4(COC4)[C@@H](O)[C@H](O)[C@H]3O)ccc2C)cc1` are 1500 nM and 3.4 nM.
For `COc1ccc(Cc2cc([C@@H]3OC(CO)(CO)[C@@H](O)[C@H](O)[C@H]3O)ccc2Cl)cc1`, the IC50 in [2] amounted to 6800 nM; in data set [1], 59 nM.
Consider `CCc1ccc(Cc2cc([C@@H]3OC4(CS(=O)(=O)C4)[C@@H](O)[C@H](O)[C@H]3O)ccc2C)cc1`, for which the results for the IC50 in data set [2] and in [1] were more than 10000 nM and 14 nM, respectively.
For `COc1ccc(Cc2cc([C@@H]3OC4(COC4)[C@@H](O)[C@H](O)[C@H]3O)ccc2Cl)cc1`, in that order: more than 9600 nM and 23 nM.
With `CCOc1ccc(Cc2cc([C@@H]3O[C@H](CO)[C@@H](O)[C@H](O)[C@H]3O)ccc2Cl)cc1` [DAPAGLIFLOZIN], in [7], the clearance was determined as 10 mL/min/kg. Moreover, the Vd in data set [8] came out at 3.8 L/kg. The half-life in data set [9] was 264 min. Also, in data set [10], the bioavailability is 100%.
For the compound `CCc1ccc(Cc2cc([C@@H]3O[C@]4(CCCO4)[C@@H](O)[C@H](O)[C@H]3O)ccc2C)cc1`, the IC50 in data set [2] amounted to 1100 nM; in data set [1], 53 nM.
